Assay results reported in patent US8865659B2, “Compositions for prevention or treatment of Hepatitis C virus containing ginsenoside Rg3 as an active ingredient” (priority 2012, dated 2014).

Tests used:
cleaved PARP = assay: Western blotting against cleaved PARP (apoptosis) in JFH-1 infected Huh 7.5.1 cells; assay type: cell-based
Experimental: The experiment was carried out as follow. First, 200,000 Huh 7.5.1 cells were placed in a 60×15 mm cell culture dish. Next day, Japanese Fulminant Hepatitis-1 virus (JFH-1) stock vial which was stored in −70° C. refrigerator was taken out and thawed out in a container filled with ice-water. The culture medium was collected from the cultured 60×15 mm cell culture dish, washed with 1×PBS and collected, again. 1.5 ml of JFH-1 virus solution per 60×15 mm cell culture dish each was added. The dish was shaken to cover the surface sufficiently. The dish was laid in a 5% CO2 incubator at 37° C. for 6 hours and after that, the supernatant was draw out. 1×PBS was spread on the cell surface as slow as possible and after one time washing, cells were collected. 5 ml of cell culture media was added to control and JFH-1 treatments groups. At the last step of virus-infection, 5 ml CM and each […] of ginsenosides which was set to 50 mM concentration were added to the cell culture media. After that, the cell culture media was laid in a 5% CO2 incubator at 37° C. After 72 hours, the following steps were carried out.
As described in the above Example 3, the Huh 7.5.1 cells were treated with each 100 μM of seven ginsenosides (Ro, Re, Rg1, Rg2, Rg3, Rh1, Rh2). After 72 hours, a western blotting analysis was carried out for analyzing virus suppression effect against HCV CORE and cleaved PARP. […]

HCV NS3/4A protease = biological target: T1, HCV NS3/4A protease (Hepatitis C virus genotype 2a, UniProt Q99IB8); assay: HCV NS3/4A protease activity (HCV Protease Assay kit, ANASPEC); assay type: biochemical
T1 construct: Diluted HCV NS3 protease to an appropriate concentration in assay buffer; expressed in transfected cells; host or cells: HCV replicon-containing Huh7 cells (membrane fractions)
Experimental: HCV Protease Assay kit (ANASPEC) was used to the following experiments. The components, description and quantity were as follows:
Diluted HCV protease substrate (Component A) 1:50 in assay buffer.
Diluted HCV NS3 protease to an appropriate concentration in assay buffer.
b) Mixed an equal volume of the HCV NS3 protease diluent and Pep4AK diluent. Incubated the mixture at 23-25° C. for 15 min.
The HCV replicon-containing cells (e.g. 1×10^7-10^8 Huh7 cells) grew to 90% confluence. The cells were washed with 1× phosphate-buffered saline once, and then the cells were detached by scraping. The cell pellets were harvested by centrifuging at 900×g for 10 min at 4° C. The cell pellets were resuspended with 1 mL of hypotonic buffer (10 mM Tris-HCl, pH 7.8, 10 mM NaCl), and then the cell pellets were incubated on ice for 15-20 min. The cell pellets were disrupted with 50 strokes of a tight fitting pestle in a Dounce homogenizer. The homogenate was centrifuged at 900×g for 5 min at 4° C. to remove the nuclei, which was in the pellet. […]
For kinetics reading: Immediately started measuring fluorescence intensity at Ex/Em=490 nm/520 nm continuously and recorded data every 5 min for 30 to 60 min.
For end-point reading: Incubated the reaction at room temperature for 30 to 60 minutes. […] Then measured fluorescence intensity at Ex/Em=490 nm/520 nm.

T1 sequence (Q99IB8 1031-1661): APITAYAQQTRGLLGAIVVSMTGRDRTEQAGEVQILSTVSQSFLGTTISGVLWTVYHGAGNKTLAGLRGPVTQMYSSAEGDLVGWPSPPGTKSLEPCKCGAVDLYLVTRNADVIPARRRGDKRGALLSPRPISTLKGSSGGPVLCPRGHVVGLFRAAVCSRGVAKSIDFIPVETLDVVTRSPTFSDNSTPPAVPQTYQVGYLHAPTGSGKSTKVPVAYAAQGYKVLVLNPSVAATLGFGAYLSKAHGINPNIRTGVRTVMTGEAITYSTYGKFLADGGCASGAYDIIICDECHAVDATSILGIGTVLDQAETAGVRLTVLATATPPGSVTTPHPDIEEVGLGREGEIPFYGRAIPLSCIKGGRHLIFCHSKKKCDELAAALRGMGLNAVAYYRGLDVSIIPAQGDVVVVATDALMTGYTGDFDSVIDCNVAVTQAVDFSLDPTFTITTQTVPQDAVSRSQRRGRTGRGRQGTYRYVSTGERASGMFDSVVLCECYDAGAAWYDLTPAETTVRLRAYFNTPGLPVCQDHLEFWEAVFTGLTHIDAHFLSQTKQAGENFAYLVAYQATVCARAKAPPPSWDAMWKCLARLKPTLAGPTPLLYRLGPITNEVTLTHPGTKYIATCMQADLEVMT
T1 sequence (Q99IB8 1662-1715): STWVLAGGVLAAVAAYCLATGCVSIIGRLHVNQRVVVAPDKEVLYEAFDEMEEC

For `CC(C)=CCC[C@](C)(O)[C@H]1CC[C@]2(C)[C@@H]1[C@H](O)C[C@@H]1[C@@]3(C)CC[C@H](O[C@@H]4O[C@H](CO)[C@@H](O)[C@H](O)[C@H]4O[C@@H]4O[C@H](CO)[C@@H](O)[C@H](O)[C@H]4O)C(C)(C)[C@@H]3CC[C@]12C` [ginsenoside Rg3], the “apoptosis of the cells (cleaved PARP), dose dependence” value (cleaved PARP; 10 μM, 25 μM, 50 μM and 100 μM) was “dose-dependent manner”, the “cleaved PARP” value (cleaved PARP; 100 μM, 72 hours) was “decreased” and the NS3/4 protease activity (HCV NS3/4A protease) was “inhibited”. For the same compound, the “NS3/4 protease activity, dose dependence” value (HCV NS3/4A protease) was “dose-dependent manner”.
